Assay results: US20150216880A1, “INDUCING LACTATION IN NURSING FEMALES” (priority 2014, published 2015)

Tested on: lactation in nursing females
Assay: Topical cream applied to the nipple of a nursing mother; reported milk production
Type: in vivo, human
Conditions: nursing parent with child, 2 ml of Lubriderm Ultra cream with two percent, by volume, stanozolol, left on about two minutes, then washed off
Description: In use, the cream is applied to a nipple prior to breast feeding. Generally, the cream is left on the nipple for about five to about twenty minutes and, usually, for about five to about fifteen minutes.
It is then removed by washing. Then the mother is then ready to being nursing.
A nursing parent having a child with the ability to achieve adequate lactation has applied a 2 ml quantity of a Lubriderm Ultra cream having two percent, by volume, stanozolol added thereto. The so-applied cream is left on for about two minutes. It is then washed off.

SMILES: C[C@]12Cc3c[nH]nc3C[C@@H]1CC[C@@H]1[C@@H]2CC[C@@]2(C)[C@H]1CC[C@]2(C)O [stanozolol]
- milk production (reported by the mother): increase in milk production
